Measured values published in publication PMC3236199, “Development of Derivatives of 3, 3′-Diindolylmethane as Potent Leishmania donovani Bi-Subunit Topoisomerase IB Poisons” (PLoS ONE, 2011).
pKd: −log10 of the molar value.

Columns and labels:
LdTOP1LS = experiment: Plasmid cleavage assay; type: biochemical, Leishmania donovani; conditions: 20 µM, pHOT1 DNA
Procedure: Cleavage assay was carried out as described previously. Briefly, 50 fmol of pHOT1 supercoiled DNA (containing topoisomerase I cleavage site) and 100 fmol of reconstituted LdTOP1LS were incubated in standard reaction mixture (50 µl) containing 50 mM Tris/HCl (pH 7.5), 100 mM KCl, 10 mM MgCl2, 0.5 mM DTT, 0.5 mM EDTA and 30 µg/ml BSA in the presence of various concentrations of drugs at 37°C for 30 min. The reactions were terminated by adding 1% SDS and 150 µg/ml proteinase K and further incubated for 1 h at 37°C. DNA samples were electrophoresed in a 1% agarose gel containing 0.5 µg/ml EtBr.
The effect of DIM and its derivatives on L. donovani topoisomerase I was examined by plasmid DNA cleavage assay as described. The topoisomerase reaction has three general mechanistic steps: (i) binding of enzyme to the substrate DNA, (ii) single strand breakage and subsequent strand rotation through the break leading to change in linking number, and (iii) strand religation. The second step of reaction is the introduction of a single-stranded nick in the phosphodiester bond of the DNA, through which an intact strand is allowed to pass. […]

CT DNA = biological target: CT DNA; parameters: method as in PMID 17922678; conditions: interaction with DNA; read-out: dissociation constant (KD); cited from earlier work
[1] = tested on: L. donovani topoisomerase II; experiment: Immunoband depletion assay, topoisomerase II; type: cell-based, Leishmania donovani; conditions: 50 µM, antibody against ATPase domain of topoisomerase II
Procedure: Leishmania cells (3×10^7) were cultured in absence and presence of the drugs. Nuclear fractions were isolated as described. Briefly, cells were suspended in hypotonic buffer (10 mM Tris-HCl, pH 7.5, 1 mM EDTA, 0.1 mM EGTA, 1 mM PMSF, 1 mM benzamidine hydrochloride and 5 mM DTT) and homogenized. The homogenate was centrifuged for 10 min at 10,000 g. The pellets were washed and used as the source of nuclear fraction. Thereafter, the nuclear fractions were lysed with 1% SDS and subjected to SDS-PAGE (10%). The proteins were electrophoretically transferred to nitrocellulose membranes and immumobloting of immobilized proteins were carried out using a rabbit polyclonal antibody raised against LdTOP1S for topoisomerase I and ATPase domain of L. donovani topoisomerase II [8].
To rule out the topoisomerase II mediated cleavable complex stabilization by the derivatives, we have carried out immunoband depletion assay with antibody raised against ATPase domain (43 kDa) of L. donovani topoisomerase II.
Supplementary file pone.0028493.s001.tif: Figure S1 Stabilization of topoisomerase-II mediated cleavable complex was determined by immunoband depletion assay. Immunoband depletion of L. donovani topoisomerase II, using an antibody raised against LdTOP2 (ATPase domain, 43 kDa). […]

SMILES | conversion of closed circular DNA (form I) to nicked circular DNA (form II) (LdTOP1LS) | pKd (CT DNA) | stabilization of topoisomerase II mediated cleavage complex [1]
COc1ccc2[nH]cc(Cc3c[nH]c4ccc(OC)cc34)c2c1 [DMODIM, 5,5′-dimethoxy 3,3′-diindolyl methane] | didn't cause conversion of all the form I DNA to form II |  | 
c1ccc2c(Cc3c[nH]c4ccccc34)c[nH]c2c1 [DIM, 3, 3′-diindolyl methane, reference compound] |  | 4.66 | do not stabilize cleavage complex formation
